Laboratory results reported in patent US20240041832A1, “METHODS AND COMPOSITIONS FOR TREATING EYE DISEASES” (JENIVISION INC., priority 2021, published 2024).
Like-named read-outs stand apart in the source and are kept apart here.

How the values were obtained:
[1] = Rabbit pharmacokinetics and ocular tissue distribution, eye-drop to both eyes (Example 1); assay type: in vivo, New Zealand rabbits
Protocol: A retinal bioavailability study was performed on 4,5-dihydro-N-[4-[[4-(1-methylethoxy) phenyl] methyl] phenyl]-1H-imadazol-2-amine (assigned the coded notation JV-DE1). This study provided an indication that the compound formulated in an eye-drop and administered bilaterally to the anterior ocular surface was bioavailable in the retina. This pharmacokinetics and ocular tissue distribution study of JV-DE1 was performed in New Zealand rabbits. Briefly, […] (male) received JV-DE1 via ocular instillation to both eyes at a dose of 0.12 mg/eye. Blood samples (1 mL) were collected at 0, 0.5, 2, 4, 8, and 24 h after single ocular administration to both eyes. At each time point, one animal was euthanized after blood collection and then eye tissue samples were collected from both eyes. Aqueous humor, bulbar conjunctiva, anterior sclera, posterior sclera (in the optic nerve exit region), retina, cornea, ciliary body, and iris were collected and weighed. The samples were then stored in an ultra-low temperature freezer. Drug concentrations in the samples were subsequently determined by the LC-MS/MS method. Results are shown in FIG. 2A (right eye) and FIG. 2B (left eye).
JV-DE1 was widely distributed in the ocular tissues, and with no meaningful difference between the left and right eye, since drug administration was bilateral. JV-DE1 ocular tissue levels were well-maintained over an 8 hour period post-dosing but had declined by 24 hours. The cornea, anterior sclera, and bulbar conjunctiva had the highest levels of JV-DE1 in both eyes, whereas JV-DE1 levels were lower in those structures located within the globe. The most significant finding was the unexpectedly high levels of JV-DE1 in the retina and the posterior sclera, which underlies and supports the retina.

[2] = Rabbit bio-disposition, eye-drop to one eye (OD) (Example 2); assay type: in vivo, New Zealand rabbits
Protocol: In order to verify that drug delivery of JV-DE1 was essentially confined to ocular redistribution other than via the blood circulation following contact of the eye-drop with the anterior segment ocular surface tissues, a monocular drug application study was performed. JV-DE1 was formulated in 2.4% CrEL and 0.2% glycerol in pH 7.6 TBS. CrEL is polyoxyl 35 castor oil. Other names for polyoxyl 35 castor oil include macrogolglycerol ricinoleate, PEG-35 castor oil, and […]. Briefly, for the bio-disposition experiment, JV-DE1 was administered to one eye (OD) via ocular instillation to said eye at a dose of 0.12 mg/eye. Blood samples (1 mL) and were collected at 0, 0.5, 2, 6, and 24 h after a single eye-drop ocular administration. At each of the above time points, one animal was euthanized after blood collection and selected eye tissue samples were collected from both eyes. Aqueous humor, bulbar conjunctiva, anterior sclera, posterior sclera (in the optic nerve exit region), retina, cornea, ciliary body, and iris were collected and weighed. The samples were then stored in an ultra-low temperature freezer. JV-DE1 concentrations in the samples were subsequently determined by the LC-MS/MS method.
JV-DE1 was widely distributed in the ocular tissues of the eye (OD) that received the compound. The concentration of JV-DE1 in ocular tissue levels were well-maintained over an 8 hour period post-dosing but had declined by 24 hours. The cornea, anterior sclera, and bulbar conjunctiva had the highest levels of JV-DE1 in the treated eye, which was about 100-fold greater than the JV-DE1 levels in the ciliary body/iris, posterior sclera, and retina. The most significant finding was the unexpected level of JV-DE1 in the vitreous humor. […] JV-DE1 levels in the retina of the contralateral, untreated eye were, however, one-tenth of those in the treated eye. […] Only about 10% achieved the retina by delivery from the bloodstream.

[3] = Biodistribution of JV-DE1 after single periorbital skin administration (Example 3); assay type: in vivo, cynomolgus monkeys; settings: for concentration at 3 h / concentration at 6 h / concentration at 0.5 h / concentration at 24 h: topical; for concentration at 3 h: 160.58 μg/right eye; for concentration at 6 h: 162.23 μg/right eye; for concentration at 0.5 h: 179.12 μg/right eye; for concentration at 24 h: 159.26 μg/right eye
Protocol: An additional experiment on JV-DE1 involving determining its bio-disposition following topical application to the periorbital skin that surrounds the anterior portion of the globe was performed.
JV-DE1 was formulated in medium chain triglyceride (MCT) oil. An amount of about 0.16 mg of JV-DE1 formulation was administered to one eye (OD) by circumferential topical application to the periorbital skin that surrounds the anterior portion of the globe. […] The following representative tissues were collected; upper eyelid, cornea, retina, and vitreous humor. JV-DE1 concentrations in the samples were subsequently determined by the LC-MS/MS method. The results are summarized below in Table 1

vascular IP receptor = vascular IP receptor (Homo sapiens, UniProt P43119); settings: Jones R L et al. (2006); cited from earlier work
Chain of vascular IP receptor (P43119 whole entry): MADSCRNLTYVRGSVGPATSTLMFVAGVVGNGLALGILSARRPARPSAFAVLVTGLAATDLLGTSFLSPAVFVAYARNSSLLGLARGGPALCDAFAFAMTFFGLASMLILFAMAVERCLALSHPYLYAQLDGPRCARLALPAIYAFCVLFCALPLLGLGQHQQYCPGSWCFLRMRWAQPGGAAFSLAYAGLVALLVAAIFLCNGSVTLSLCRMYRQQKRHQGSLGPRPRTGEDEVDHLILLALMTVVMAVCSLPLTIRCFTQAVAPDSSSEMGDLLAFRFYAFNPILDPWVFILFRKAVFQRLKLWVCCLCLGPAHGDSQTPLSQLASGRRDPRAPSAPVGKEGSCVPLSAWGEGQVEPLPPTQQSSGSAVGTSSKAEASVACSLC

PAF receptor = PAF receptor (Homo sapiens, UniProt P25105); settings: Bley K R et al. (2006); cited from earlier work
Chain of PAF receptor (P25105 whole entry): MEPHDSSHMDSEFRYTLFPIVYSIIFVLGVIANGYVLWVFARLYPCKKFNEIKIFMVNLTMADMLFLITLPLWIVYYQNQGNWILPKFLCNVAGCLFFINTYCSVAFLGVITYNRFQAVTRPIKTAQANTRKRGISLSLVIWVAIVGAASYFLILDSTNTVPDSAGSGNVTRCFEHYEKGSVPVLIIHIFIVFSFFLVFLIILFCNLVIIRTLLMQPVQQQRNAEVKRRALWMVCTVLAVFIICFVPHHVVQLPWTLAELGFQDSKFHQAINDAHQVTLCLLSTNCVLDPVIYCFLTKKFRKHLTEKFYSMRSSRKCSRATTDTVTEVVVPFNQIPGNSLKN

IP receptor = molecular target: T1, IP receptor (Homo sapiens, UniProt P43119); settings: U.S. Pat. No. 9,321,745; cited from earlier work
T1 construct: VEGF release from human immune cells when macrophages were primed with TNFα; endogenous in cells; host or cells: human macrophages primed with TNFα
T1 sequence (P43119 whole entry): as the sequence (P43119 whole entry) above

[4] = 0.5 h, 179.120 μg/right eye periorbital skin
[5] = 3 h, 160.580 μg/right eye periorbital skin
[6] = 6 h, 162.230 μg/right eye periorbital skin
[7] = 24 h, 159.260 μg/right eye periorbital skin

CC(C)Oc1ccc(Cc2ccc(NC3=NCCN3)cc2)cc1 [JV-DE1, 4,5-dihydro-N-[4-[[4-(1-methylethoxy)phenyl]methyl]phenyl]-1H-imadazol-2-amine]
drug level delivered to the anterior chamber of the eye as an eye drop ([1]; eye drop): > 1 µg/g | biodistribution dose gradient, eye drops ([1]; eye drops): cornea≥conjunctiva≥anterior sclera≈iris≥ciliary body≥posterior sclera≥aqueous humor≥retina | retina distribution after eye-drop ([1]; eye-drop administration): less than 60 ng/g | Cmax ([1]; male, New Zealand, rabbit, plasma, topical or ocular, ocular instillation to both eyes, 0.12 mg/eye, at 0.5 hours post-dose): ~2 ng/mL | plasma clearance at 24 hours post dose ([1]; ocular instillation to both eyes, 0.12 mg/eye): good clearance | Cmax ([2]; New Zealand, rabbit, plasma, topical or ocular, ocular instillation to one eye (OD), 0.12 mg/eye, at 0.5 hours post-dose): 0.95 ng/mL | retina level of contralateral untreated eye relative to treated eye ([2]; OS vs OD): one-tenth | share of drug reaching the retina by delivery from the bloodstream ([2]; monocular eye-drop): about 10% | share of drug reaching the retina by intra-global redistribution of the eye-drop ([2]; monocular eye-drop): 90% | tissues with detectable compound in contralateral untreated eye (OS) ([2]; monocular eye-drop to OD): detected only in the cornea, posterior sclera, and retina | time to complete clearance from plasma ([2]; ocular instillation to one eye (OD), 0.12 mg/eye): ≤ 24 h | levels in cornea, anterior sclera and bulbar conjunctiva relative to ciliary body/iris, posterior sclera and retina ([2]; treated eye (OD)): about 100 fold | % of administered dose, Right cornea [3, 4]: 0.00% | % of administered dose, Right retina [3, 4]: 0.09% | % of administered dose, Right upper eyelid [3, 4]: 0.64% | % of administered dose, Right vitreous humor [3, 4]: 4.67% | % of administered dose, Right cornea [3, 5]: 0.00% | % of administered dose, Right retina [3, 5]: 0.26% | % of administered dose, Right upper eyelid [3, 5]: 1.50% | % of administered dose, Right vitreous humor [3, 5]: 2.91% | % of administered dose, Right cornea [3, 6]: 0.00% | % of administered dose, Right retina [3, 6]: 0.25% | % of administered dose, Right upper eyelid [3, 6]: 0.48% | % of administered dose, Right vitreous humor [3, 6]: 3.13% | % of administered dose, Right cornea [3, 7]: 0.00% | % of administered dose, Right retina [3, 7]: 0.05% | % of administered dose, Right upper eyelid [3, 7]: 0.60% | % of administered dose, Right vitreous humor [3, 7]: 1.79% | Drug Concentration in Plasma ([3]; 24 h, 159.260 μg/right eye periorbital skin, animal 104, LLOQ 0.1 ng/ml): BLQ | drug level in retina at all tested time points ([3]; NIODP 165.30±4.65 μg/eye (OD)): greater than 1000 ng/g | drug level delivered to retina via NIODP ([3]; all tested time points): > 1 µg/g | plasma concentrations ([3]; all time points, LLOQ 0.1 ng/ml): less than 0.3 ng/ml | Cmax ([3]; cynomolgus monkey, plasma, topical or ocular, 0.16 mg, single dose monocular periorbital administration, over the 6 hour post-dose period): 0.13 to 0.26 ng/mL | concentration at 3 h ([3]; cynomolgus monkey, plasma, 3 h, 160.580 μg/right eye periorbital skin, animal 102, read-out: Drug Concentration in Plasma): 0.21 ng/mL | concentration at 6 h ([3]; cynomolgus monkey, plasma, 6 h, 162.230 μg/right eye periorbital skin, animal 103, read-out: Drug Concentration in Plasma): 0.26 ng/mL | concentration at 0.5 h ([3]; cynomolgus monkey, plasma, 0.5 h, 179.120 μg/right eye periorbital skin, animal 101, read-out: Drug Concentration in Plasma): 0.131 ng/mL | concentration at 24 h ([3]; cynomolgus monkey, right cornea, 24 h, 159.260 μg/right eye periorbital skin, read-out: Drug Concentration in Tissue, Right cornea): 5.5 ng/g | concentration at 3 h ([3]; cynomolgus monkey, right cornea, 3 h, 160.580 μg/right eye periorbital skin, read-out: Drug Concentration in Tissue, Right cornea): 27.9 ng/g | concentration at 6 h ([3]; cynomolgus monkey, right cornea, 6 h, 162.230 μg/right eye periorbital skin, read-out: Drug Concentration in Tissue, Right cornea): 45.5 ng/g | concentration at 0.5 h ([3]; cynomolgus monkey, right cornea, 0.5 h, 179.120 μg/right eye periorbital skin, read-out: Drug Concentration in Tissue, Right cornea): 39.6 ng/g | concentration at 24 h ([3]; cynomolgus monkey, right retina, 24 h, 159.260 μg/right eye periorbital skin, read-out: Drug Concentration in Tissue, Right retina): 1620 ng/g | concentration at 3 h ([3]; cynomolgus monkey, right retina, 3 h, 160.580 μg/right eye periorbital skin, read-out: Drug Concentration in Tissue, Right retina): 16700 ng/g | concentration at 6 h ([3]; cynomolgus monkey, right retina, 6 h, 162.230 μg/right eye periorbital skin, read-out: Drug Concentration in Tissue, Right retina): 23900 ng/g | concentration at 0.5 h ([3]; cynomolgus monkey, right retina, 0.5 h, 179.120 μg/right eye periorbital skin, read-out: Drug Concentration in Tissue, Right retina): 9300 ng/g | concentration at 24 h ([3]; cynomolgus monkey, right upper eyelid, 24 h, 159.260 μg/right eye periorbital skin, read-out: Drug Concentration in Tissue, Right upper eyelid): 11600 ng/g | concentration at 3 h ([3]; cynomolgus monkey, right upper eyelid, 3 h, 160.580 μg/right eye periorbital skin, read-out: Drug Concentration in Tissue, Right upper eyelid): 32500 ng/g | concentration at 6 h ([3]; cynomolgus monkey, right upper eyelid, 6 h, 162.230 μg/right eye periorbital skin, read-out: Drug Concentration in Tissue, Right upper eyelid): 7950 ng/g | concentration at 0.5 h ([3]; cynomolgus monkey, right upper eyelid, 0.5 h, 179.120 μg/right eye periorbital skin, read-out: Drug Concentration in Tissue, Right upper eyelid): 26500 ng/g | concentration at 24 h ([3]; cynomolgus monkey, right vitreous humor, 24 h, 159.260 μg/right eye periorbital skin, read-out: Drug Concentration in Tissue, Right vitreous humor): 19 ng/g | concentration at 3 h ([3]; cynomolgus monkey, right vitreous humor, 3 h, 160.580 μg/right eye periorbital skin, read-out: Drug Concentration in Tissue, Right vitreous humor): 7.79 ng/g | concentration at 6 h ([3]; cynomolgus monkey, right vitreous humor, 6 h, 162.230 μg/right eye periorbital skin, read-out: Drug Concentration in Tissue, Right vitreous humor): 3.9 ng/g | concentration at 0.5 h ([3]; cynomolgus monkey, right vitreous humor, 0.5 h, 179.120 μg/right eye periorbital skin, read-out: Drug Concentration in Tissue, Right vitreous humor): 15.2 ng/g | biodistribution via NIODP ([3]; periorbital skin): eyelid≥retina>>cornea≥vitreous humor | time to complete clearance from plasma ([3]; single dose monocular periorbital administration): ≤ 24 h | pA2 (vascular IP receptor): 8.2 | pKi (PAF receptor): 7.9 | VEGF release induced by cicaprost in the presence of TNFα (IP receptor): abolished
